Reference: publication PMC9330635, “Halogenated Pyrrolopyrimidines with Low MIC on Staphylococcus aureus and Synergistic Effects with an Antimicrobial Peptide” (Antibiotics, 2022)
Converted amounts (≈) assume the structure as drawn. Read-outs that look alike come from different tables or passages of the source.

Key:
E. coli (MG1655) = test: MIC by broth microdilution, E. coli; type: cell-based, Escherichia coli; details: E. coli MG1655, broth microdilution; for MIC: Escherichia coli
Experimental: (§1) In this study, we have, therefore, altered our strategy and used minimal inhibitory concentration assays to identify and improve antibacterial agents. A total of 10 pyrrolopyrimidines with variation of the 4-amino group were assayed for their MIC in E. coli (MG1655) and S. aureus (ATCC29213) using the broth microdilution method. Subsequently, the compounds were also counter-screened for their inhibition of human EGFR.
(§2) The MIC of compound 1–21 towards Escherichia coli (MG1655) and Staphylococcus aureus (ATCC29213) was determined following the standards that were recommended by the Clinical and Laboratory Standards Institute (CLSI) for the broth microdilution method. Briefly, the bacterial suspensions were adjusted to 0.5 McFarland standard (~1 × 10^8 colony forming units (CFU)/mL) and diluted 1:200 in Cation-Adjusted Mueller-Hinton Broth (CAMHB, […], […]). The suspension was subsequently added to polypropylene microtiter plates (100 µL/well, ~5 × 10^4 CFU/well) that were already prepared with different concentrations of the various halogenated fused pyrimidines (11 µL/well, two-fold serial dilutions). The plates were incubated at 37 °C overnight before inspection for visible growth and determination of the MIC values.

S. aureus (ATCC29213) = test: MIC by broth microdilution, S. aureus; type: cell-based, Staphylococcus aureus; details: for MIC: Staphylococcus aureus; for Activity towards S. aureus (in words): culture, MIC assay
Experimental: as §1, §2

human EGFR = target: T1, human EGFR (Homo sapiens, UniProt P00533); test: Enzymatic EGFR (ErbB1) inhibition, Z'-LYTE; type: biochemical; details: 100 nM compound, ATP equal to KM
T1 construct: purchased Invitrogen (ThermoFisher), assay service
Experimental: The compounds were supplied in a 10 mM DMSO solution, and enzymatic EGFR (ErbB1) inhibition potency was determined by Invitrogen (ThermoFisher) using their Z’-LYTE® assay technology. The compounds were tested for their inhibitory activity at 100 nM in duplicates. The IC50 values that were reported for 1 and 5 are based on the average of 2 titration curves (20 data points), and were calculated from activity data with a four-parameter logistic model using SigmaPlot (Windows Version 12.0 from Systat Software, Inc., Palo Alto, CA, USA). Unless stated otherwise, the ATP concentration that was used was equal to apparent KM.

S. aureus = test: MIC towards S. aureus in combination with the peptide betatide; type: cell-based, Staphylococcus aureus; details: betatide 8 mg/L (half its MIC)
Experimental: The concentration of betatide was 8 mg/L, which corresponds to half the MIC concentration.
as §2

[1] = ATCC29213, S. aureus, single agent (Table 3), read-out: Single Comp. MIC
[2] = S. aureus ATCC29213, broth microdilution, read-out: S. aureus MIC

| Compound | melting point | MIC (E. coli (MG1655)) [µg/mL] | MIC (S. aureus (ATCC29213); [1]) [µg/mL] | MIC (S. aureus (ATCC29213); [2]) [µg/mL] | inhibition at 0.1 µM (human EGFR) [%] | Combination with Betatide MIC (S. aureus) [µg/mL] | Activity towards S. aureus (in words) (S. aureus (ATCC29213)) | E. coli MIC (E. coli (MG1655)) [µg/mL] | S. aureus MIC (S. aureus (ATCC29213); S. aureus ATCC29213, broth microdilution) [µg/mL] | Human EGFR % inhibition (human EGFR) [%] |
| --- | --- | --- | --- | --- | --- | --- | --- | --- | --- | --- |
| C[C@@H](Nc1ncnc2[nH]c(-c3ccc(O)cc3)cc12)c1ccc(I)cc1 (hydrate or solvate) [Compound 6, (R)-4-(4-((1-(4-Iodophenyl)ethyl)amino)-7H-pyrrolo[2,3-d]pyrimidin-6-yl)phenol] | 254.9 to 256 °C (dec.) | – | – | – | – | – | – | – | – | – |
| C[C@@H](Nc1ncnc2sc(-c3ccc(O)cc3)cc12)c1ccc(Br)cc1 (hydrate or solvate) [Compound 21, (R)-4-(4-((1-(4-Bromophenyl)ethyl)amino)thieno[2,3-d]pyrimidin-6-yl)phenol] | 144.1 to 145.4 °C | – | – | – | – | – | – | – | – | – |
| Cc1ccc([C@@H](C)Nc2ncnc3[nH]c(-c4ccc(O)cc4)cc23)cc1 [Compound 2, (R)-4-(4-((1-(p-Tolyl)ethyl)amino)-7H-pyrrolo[2,3-d]pyrimidin-6-yl)phenol] | – | > 128 | 16 (≈ 46.5 µM) | 16 (≈ 46.5 µM) | 91 | 8 | – | – | – | – |
| C[C@@H](Nc1ncnc2[nH]c(-c3ccc(O)cc3)cc12)c1ccc(F)cc1 [Compound 3] | – | > 128 | – | > 128 | 92 | – | inactive | – | – | – |
| C[C@@H](Nc1ncnc2[nH]c(-c3ccc(O)cc3)cc12)c1ccc(Cl)cc1 [Compound 4, (R)-4-(4-((1-(4-Chlorophenyl)ethyl)amino)-7H-pyrrolo[2,3-d]pyrimidin-6-yl)phenol] | 216.6 °C (dec.) | > 128 | 16 (≈ 43.9 µM) | 16 (≈ 43.9 µM) | 91 | 4 | – | – | – | – |
| C[C@@H](Nc1ncnc2[nH]c(-c3ccc(O)cc3)cc12)c1ccc(I)cc1 [Compound 6, (R)-4-(4-((1-(4-Iodophenyl)ethyl)amino)-7H-pyrrolo[2,3-d]pyrimidin-6-yl)phenol] | – | > 128 | 8 (≈ 17.5 µM) | 8 (≈ 17.5 µM) | 43 | 2 | – | – | – | – |
| C[C@@H](Nc1ncnc2[nH]c(-c3ccc(O)cc3)cc12)c1cccc(Br)c1 [Compound 7, (R)-4-(4-((1-(3-Bromophenyl)ethyl)amino)-7H-pyrrolo[2,3-d]pyrimidin-6-yl)phenol] | – | > 128 | 16 (≈ 39.1 µM) | 16 (≈ 39.1 µM) | 89 | 4 | – | – | – | – |
| Oc1ccc(-c2cc3c(NCc4ccc(Br)cc4)ncnc3[nH]2)cc1 [Compound 8, 4-(4-((4-Bromobenzyl)amino)-7H-pyrrolo[2,3-d]pyrimidin-6-yl)phenol] | – | > 128 | – | > 128 | 67 | – | abolished all activity | – | – | – |
| C[C@H](Nc1ncnc2[nH]c(-c3ccc(O)cc3)cc12)c1ccc(Br)cc1 [Compound 9, (S)-4-(4-((1-(4-Bromophenyl)ethyl)amino)-7H-pyrrolo[2,3-d]pyrimidin-6-yl)phenol] | – | > 128 | – | > 128 | – | – | abolished all activity | – | – | – |
| COc1ccc(-c2cc3c(N[C@@H](C)c4ccc(Br)cc4)ncnc3[nH]2)cc1 [Compound 11, (S)-N-(1-(4-Bromophenyl)ethyl)-6-(4-methoxyphenyl)-7H-pyrrolo[2,3-d]pyrimidin-4-amine] | – | > 128 | – | > 128 | – | – | – | – | – | – |
| C[C@@H](Nc1ncnc2[nH]c(-c3ccccc3)cc12)c1ccc(Br)cc1 [Compound 12, (R)-N-(1-(4-Bromophenyl)ethyl)-6-phenyl-7H-pyrrolo[2,3-d] pyrimidin-4-amine] | – | > 128 | – | > 128 | 66 | – | – | – | – | – |
| C[C@@H](Nc1ncnc2[nH]c(-c3ccc(F)cc3)cc12)c1ccc(Br)cc1 [Compound 13, (R)-N-(1-(4-Bromophenyl)ethyl)-6-(4-fluorophenyl)-7H-pyrrolo[2,3-d] pyrimidin-4-amine] | – | > 128 | – | > 128 | 58 | – | – | – | – | – |
| C[C@@H](Nc1ncnc2[nH]c(-c3ccc([N+](=O)[O-])cc3)cc12)c1ccc(Br)cc1 [Compound 14, (R)-N-(1-(4-Bromophenyl)ethyl)-6-(4-nitrophenyl)-7H-pyrrolo [2,3-d] pyrimidin-4-amine] | – | > 128 | – | > 128 | 33 | – | – | – | – | – |
| C[C@@H](Nc1ncnc2[nH]c(-c3ccc(N)cc3)cc12)c1ccc(Br)cc1 [Compound 15, (R)-6-(4-Aminophenyl)-N-(1-(4-bromophenyl)ethyl)-7H-pyrrolo[2,3-d]pyrimidin-4-amine] | – | > 128 | – | > 128 | 90 | – | – | – | – | – |
| COC(=O)c1ccc(-c2cc3c(N[C@H](C)c4ccc(Br)cc4)ncnc3[nH]2)cc1 [Compound 16, Methyl (R)-4-(4-((1-(4-bromophenyl)ethyl)amino)-7H-pyrrolo[2,3-d]pyrimidin-6-yl)be-nzoate] | – | > 128 | – | > 128 | 42 | – | – | – | – | – |
| C[C@@H](Nc1ncnc2[nH]c(-c3ccc(S(N)(=O)=O)cc3)cc12)c1ccc(Br)cc1 [Compound 17, (R)-4-(4-((1-(4-Bromophenyl)ethyl)amino)-7H-pyrrolo[2,3-d]pyrimidin-6-yl)benzene-sulfonamide] | – | > 128 | – | > 128 | 85 | – | – | – | – | – |
| C[C@@H](Nc1ncnc2[nH]c(-c3ccccc3O)cc12)c1ccc(Br)cc1 [Compound 18, (R)-2-(4-((1-(4-Bromophenyl)ethyl)amino)-7H-pyrrolo[2,3-d]pyrimidin-6-yl)phenol] | – | > 128 | – | > 128 | 80 | – | – | – | – | – |
| C[C@@H](Nc1ncnc2[nH]c(-c3cccc(O)c3)cc12)c1ccc(Br)cc1 [Compound 19, (R)-3-(4-((1-(4-Bromophenyl)ethyl)amino)-7H-pyrrolo[2,3-d]pyrimidin-6-yl)phenol] | – | > 128 | 8 (≈ 19.5 µM) | 16 (≈ 39.1 µM) | 73 | 2 | – | – | – | – |
| COc1ccc(-c2cc3c(N[C@H](C)c4ccc(Br)cc4)ncnc3s2)cc1 [Compound 20, (R)-N-(1-(4-Bromophenyl)ethyl)-6-(4-methoxyphenyl)thieno [2,3-d] pyrimidin-4-amine] | 107.1 to 109.4 °C | > 128 | – | > 128 | 12 | – | no activity | – | – | – |
| C[C@@H](Nc1ncnc2sc(-c3ccc(O)cc3)cc12)c1ccc(Br)cc1 [Compound 21, (R)-4-(4-((1-(4-Bromophenyl)ethyl)amino)thieno[2,3-d]pyrimidin-6-yl)phenol] | – | > 128 | 32 (≈ 75.1 µM) | 32 (≈ 75.1 µM) | 5 | 4 | – | – | – | – |
| (R)-4-(4-((1-(4-Bromophenyl)ethyl)(methyl)amino)-7H-pyrrolo [2,3-d]pyrimidin-6-yl)phenol [Compound 10] | – | – | – | – | – | – | abolished all activity | >128 | >128 | 16 |
